# Measured values reported in paper PMC8541353, “A Novel Phenylpyrrolidine Derivative: Synthesis and Effect on Cognitive Functions in Rats with Experimental Ishemic Stroke” (Molecules, 2021).
# What was measured:
# [1] = test system: newborn rat cortical neurons; test: Glutamate-induced excitotoxicity in newborn rat cortical neuron culture, MTT cell viability; format: cell-based, Wistar rats
# From the text: To confirm the predicted biological activity, we adopted a glutamate-induced excitotoxicity in the rat cortical neurons model. This work was based on previous findings that glutamate is a well-known excitatory CNS neurotransmitter, which contributes to normal neural transmission, development, differentiation, and plasticity. However, excessive extracellular glutamate levels cause uncontrolled continuous neuron depolarization, which can lead to neuronal death. Excitotoxicity is associated with several neurodegenerative conditions, including Huntington’s disease, Alzheimer’s disease, amyotrophic lateral sclerosis, Parkinson’s disease, and stroke/traumatic brain injury. To see whether compound 1 has neuroprotective effects, we studied the influence of compound 1 in glutamate-treated cortical neurons isolated from newborn Wistar rats (0–1 day).
# The primary culture of newborn rat cortical neurons was obtained as previously described. Briefly, cortical neurons were collected from newborn Wistar rats and inoculated onto culture plates (4 × 10^5 cell cm^–2). […]
# The cell viability was measured according to the cell ability of tetrazolium dye reduction. […] The formazan absorption at 492 nm was measured using a Zenyth 1100 (Anthos Labtec Instruments, GmbH, Salzburg, Austria) microplate reader.
# [2] = cited from earlier work
Compound,"Increase of cell survival rate ([1]; 50 µM compound 1 after exposure to 50 µM glutamate, MTT, maximum protective effect)",Neuroprotective effect at higher dose ([1]; 100 μM compound 1),"Increase of BBB permeability in animals with ischemic stroke ([2]; animals with ischemic stroke, ref 25 (Paliwal et al. 2018))",Literature Report of BBB Permeability [2]
"O=C(CN1CC(c2ccccc2)CC1=O)NCCS(=O)(=O)[O-].[K+] (stereo not shown) [Compound 1, potassium 2-[2-(2-oxo-4-phenylpyrrolidin-1-yl)acetamido]ethane-1-sulfonate]",37%,decreases,,
"NC(=O)CN1CCCC1=O [Piracetam, reference compound]",,,3.5 fold,"Very good [21, 22]"
